# Results as given in publication PMC4435547 (The journal of maternal-fetal & neonatal medicine : the …, 2009).
# How the values were obtained:
# [1] = tested on: dually perfused human placental lobule
# placenta = conditions: cited from earlier work
SMILES,"effect of HSA, AAG or their combination in the perfusion medium on transfer of AP across the placental lobule ([1]; HSA, AAG, or their combination)","Antipyrine Fetal/Maternal concentration ratio ([1]; human, 20 µg/mL)",fetal/maternal concentration ratio in presence of HSA versus absence of the protein (placenta)
"Cc1cc(=O)n(-c2ccccc2)n1C [Antipyrine, antipyrine]",not affected,0.84 ± 0.11,
COc1ccc(Cl)cc1C(=O)NCCc1ccc(S(=O)(=O)NC(=O)NC2CCCCC2)cc1 [glyburide],,,significantly lower
